Measurements: patent US20220274947A1, “NOVEL HETEROARYL-TRIAZOLE COMPOUNDS AS PESTICIDES” (Bayer Aktiengesellschaft, priority 2019, published 2022)

What was measured:
Format in all cases: in vivo
Diabrotica balteata = Diabrotica balteata spray test; conditions: 168 h, wheat seeds, larvae, after 7 days, read-out: activity (efficacy: 100% means all seedlings have grown up like in the untreated, uninfected control); for pest or weed control at 32 µg/disc, 100 g/ha: application rate 100 g/ha (=32 μg/well); for pest or weed control at 160 µg/disc, 500 g/ha: application rate 500 g/ha (=160 μg/well)
Method in brief: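 Efficacy (%) was scored 7 days after spraying, with 100% meaning growth like the untreated, uninfected control and 0% meaning no seedling grew. Spray solutions of compound in acetone/DMF with emulsifier-containing water went onto 1-day-germinated wheat seeds, and each unit was then infested with 10-20 banded cucumber beetle larvae.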

Rhipicephalus microplus [1] = assay: Rhipicephalus (Boophilus) microplus injection test (BOOPMI Inj); conditions: 168 h, injection into adult engorged female ticks, egg deposition after 7 days, read-out: activity (efficacy: 100% means all eggs are infertile); for pest or weed control at 0.004 mg: application rate 4 μg/tick; for pest or weed control at 0.02 mg: application rate 20 μg/tick
Method in brief: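 Compound in DMSO, 1 μL, injected abdominally into five adult engorged females, which were then held in a climate chamber. Read-out is egg fertility, scored from deposition at 7 days, with unclear eggs followed to hatching (~42 days); 0% means all eggs fertile, 100% all infertile.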

Rhipicephalus sanguineus = Rhipicephalus sanguineus in-vitro contact test, adult brown dog ticks (RHIPSA Cont); conditions: 48 h, after 48 hours, read-out: activity (efficacy: 100% means all ticks are dead or moribund); for pest or weed control at 1 µg/cm2, 100 g/ha: application rate 1 μg/cm^2 (=100 g/ha); for pest or weed control at 5 µg/cm2, 500 g/ha: application rate 5 μg/cm^2 (=500 g/ha)
Method in brief: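 Compound in acetone was coated onto the inner walls of glass tubes and dried by rotation before adult brown dog ticks were exposed. Efficacy was scored at 48 h. Ticks unable to climb away from a 45–50 °C heating plate within 5 min counted as dead or moribund.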

Nezara viridula = Nezara viridula spray test; conditions: in Hordeum vulgare, 96 h, application rate 500 g/ha, barley plants, larvae, after 4 days
Method in brief: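 Mortality was read at day 4 (0% = no kill, 100% = total kill) after spraying larva-infested barley plants. Test solutions were made from an acetone/DMF concentrate diluted with water holding 1000 ppm alkylarylpolyglycol ether emulsifier.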

Spodoptera frugiperda = Spodoptera frugiperda spray test; conditions: in Zea mays, 168 h, read-out: activity (mortality)
Method in brief: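 Percent kill of fall armyworm caterpillars was assessed 7 days after infesting dried, treated maize leaf sections. Treatment was a spray of compound in acetone/dimethylformamide, diluted with water containing emulsifier at 1000 ppm.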

Myzus persicae = Myzus persicae oral test; conditions: 120 h, read-out: activity (mortality)
Method in brief: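 Percent mortality was recorded at day 5, where 0% means no aphids killed. Compound prepared from an acetone concentrate diluted in water and combined with IPL41 medium containing sugar was offered to mixed-stage green peach aphids, which sucked it through a parafilm seal.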

Nilaparvata lugens = Nilaparvata lugens spray test; conditions: 96 h, rice plants, after 4 days; for mortality at 100 g/ha: application rate 100 g/ha
Description: Nilaparvata lugens—Spray Test Solvent: 78.0 parts by weight of acetone • • 1.5 parts by weight of dimethylformamide Emulsifier: alkylarylpolyglycol ether
To produce a suitable preparation of active compound, 1 part by weight of active compound is mixed with the stated amount of solvents and is diluted with water, containing an emulsifier concentration of 1000 ppm, to the desired concentration. Further test concentrations are prepared by dilution with emulsifier containing water.
Rice plants (Oryza sativa) are sprayed with a preparation of the active ingredient of the desired concentration and the plants are infested with the brown planthopper (Nilaparvata lugens).
After 4 days mortality in % is determined. 100% means all planthoppers have been killed and 0% means none of the planthoppers have been killed.

Rhipicephalus microplus [2] = assay: Rhipicephalus (Boophilus) microplus in-vitro contact test, larval cattle tick, strain Parkhurst (BOOPMI Cont); conditions: application rate 5 μg/cm^2 (=500 g/ha), tick larvae, after 48 hours, read-out: activity (efficacy: 100% means all larvae are dead or moribund)
Method in brief: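 After 48 h at 27° C. and 85% humidity, percent dead or moribund larvae was scored from negative geotactic behaviour. Larvae (20-50, Parkhurst strain, synthetic pyrethroid-resistant) were exposed in tubes coated with compound from acetone, 900 ppm corresponding to 5 μg/cm^2.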

Ctenocephalides felis [3] = assay: Ctenocephalides felis oral test (CTECFE Oral); conditions: 48 h, read-out: activity (mortality)
Method in brief: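 Percent mortality was recorded 2 days after roughly 20 adult Ctenocephalides felis fed on treated cattle blood. The blood was warmed to 37 °C beneath a parafilm membrane, with the fleas kept at room temperature. Compound was dissolved in DMSO and diluted into the blood to test concentration.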

Rhipicephalus microplus [4] = assay: Rhipicephalus (Boophilus) microplus dip test (BOOPMI Dip); conditions: 168 h, application rate 100 ppm, engorged adult female ticks, after 7 days, read-out: activity (efficacy: 100% means all eggs are infertile)
Description: Rhipicephalus (Boophilus) Microplus—Dip Test (BOOPMI Dip)
Test Animal: cattle ticks (Rhipicephalus microplus) strain parkhurst, SP-resistant Solvent: dimethyl sulfoxide
To produce a suitable preparation of active compound, 10 mg of active compound are dissolved in 0.5 mL solvent, and the concentrate is diluted with water to the desired concentration.
This compound solution is pipetted into tubes. 8-10 engorged, adult, female cattle ticks (Rhipicephalus microplus) are placed in perforated tubes. These tubes are immersed in the aqueous compound solution until the ticks are completely moistened. After the liquid has drained off, the ticks are transferred to a filter paper in a plastic tray and stored in a climate chamber.
After 7 days egg deposition of fertile eggs is monitored. Eggs where fertility is not visible are stored in a climate chamber till hatching after about 42 days. An efficacy of 100% means all eggs are infertile; 0% means all eggs are fertile.

[5] = tested on: Culex quinquefasciatus strain P00; assay: Culex quinquefasciatus test (CULXFA surface treatment & contact assay); conditions: surface concentration 20 mg/m^2, glazed tile, exposure 30 minutes, 24 hours after contact, read-out: efficacy (mortality)
Description: Culex quinquefasciatus Test (CULXFA Surface Treatment & Contact Assay) Solvent: Aceton+2000 ppm rapeseed oil methyl ester (RME)
(§1) In order to produce a sufficient, active ingredient containing solution it is necessary to solve the test compound in the solvent-mix (acetone at 2 mg/ml/RME 2 000 ppm). This solution is pipetted onto a glazed tile and after evaporation of the acetone, adult mosquitoes of the species Culex quinquefasciatus strain P00 are placed onto the dried surface. The exposure time is 30 minutes. Mortality in percent (%) is determined 24 hours after contact of the insects to the treated surface. 100% mortality means that all tested insects are dead, whereas 0% means that no insect died.

[6] = tested on: Musca domestica strain WHO—N; assay: Musca domestica test (MUSCDO surface treatment & contact assay); conditions: surface concentration 20 mg/m^2, glazed tile, exposure 30 minutes, 24 hours after contact, read-out: efficacy (mortality)
Method in brief: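 Compound dissolved in acetone (2 mg/ml) with 2000 ppm rapeseed oil methyl ester and pipetted onto glazed tile; after acetone evaporation, adult flies exposed to dried surface for 30 minutes. Mortality (%) scored 24 hours after contact.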

[7] = tested on: Aedes aegypti strain MONHEIM; assay: Aedes aegypti test (AEDSAE surface treatment & contact assay); conditions: surface concentration 20 mg/m^2, glazed tile, exposure 30 minutes, 24 hours after contact, read-out: efficacy (mortality)
Method in brief: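 Compound dissolved in acetone (2 mg/ml) with 2000 ppm rapeseed oil methyl ester, pipetted onto glazed tile and dried. Adult mosquitoes exposed on the surface for 30 min; percent mortality scored 24 h after contact.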

[8] = tested on: Anopheles funestus strain FUMOZ-R; assay: Anopheles funestus test (ANPHFU surface treatment & contact assay); conditions: exposure 30 minutes, 24 hours after contact, read-out: efficacy (mortality); for mortality at 20 mg/m2: surface concentration 20 mg/m^2, glazed tile
Description: Anopheles funestus Test (ANPHFU Surface Treatment & Contact Assay) Solvent: Aceton+2000 ppm rapeseed oil methyl ester (RME)
as §1, with “2000” for “2 000”, “Anopheles funestus” for “Culex quinquefasciatus”, “FUMOZ-R (Hunt et al., Med. Vet. Entomol. 2005 September; 19(3): 271-275)” for “P00”

Ctenocephalides felis [9] = assay: Ctenocephalides felis in-vitro contact test, adult cat flea (CTECFE Cont); conditions: application rate 5 μg/cm^2 (=500 g/ha), adult cat fleas, after 48 hours, read-out: activity (efficacy: 100% means all fleas are dead or moribund)
Method in brief: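 Efficacy, as percent of fleas dead or moribund, was scored 48 h after adults (5-10 per tube) were placed in glass tubes whose walls carried dried compound at 5 μg/cm^2 (900 ppm solution). Moribund meant failing to climb away from a 45-50° C. hot plate within 5 min.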

Row | SMILES | pest or weed control at 32 µg/disc, 100 g/ha (Diabrotica balteata) [%] | pest or weed control at 160 µg/disc, 500 g/ha (Diabrotica balteata) [%] | pest or weed control at 0.004 mg (Rhipicephalus microplus [1]) [%] | pest or weed control at 0.02 mg (Rhipicephalus microplus [1]) [%] | pest or weed control at 1 µg/cm2, 100 g/ha (Rhipicephalus sanguineus) [%] | pest or weed control at 5 µg/cm2, 500 g/ha (Rhipicephalus sanguineus) [%] | mortality at 100 g/ha (Spodoptera frugiperda) [%] | mortality at 500 g/ha (Spodoptera frugiperda) [%] | pest or weed control at 5 µg/cm2 (Rhipicephalus microplus [2]) [%] | mortality at 20 mg/m2 [7] [%] | further results
1 | C[C@H](NC(=O)c1cc(C(F)(F)F)cc(C(F)(F)F)c1)c1ncnn1-c1ccc(S(C)(=O)=O)cn1 [II-44] | 100 | 100 | 100 | 100 | 100 | 100 | 100 | 100 | 100 |  | mortality at 500 g/ha (Nezara viridula): 100%; mortality at 4 ppm (Myzus persicae): 100%; mortality at 500 g/ha (Nilaparvata lugens; application rate 500 g/ha): 90%
2 | C[C@H](NC(=O)c1cc(Cl)cc(C(F)(F)C(F)(F)F)c1)c1nc(C2CC2)nn1-c1ccc(C#N)cn1 [I-43] | 100 |  | 100 |  |  |  | 100 |  | 100 |  | mortality at 100 ppm (Ctenocephalides felis [3]): 100%; mortality at 100 g/ha (Nilaparvata lugens): 90%
3 | CC(C)c1nc([C@H](C)NC(=O)c2cc(C(F)(F)F)cc(C(F)(F)F)c2)n(-c2ccc(C#N)cn2)n1 [I-7] | 100 | 100 | 100 | 100 | 100 |  | 100 | 83 | 100 |  | mortality at 100 ppm (Ctenocephalides felis [3]): 100%; mortality at 500 g/ha (Nezara viridula): 100%; pest or weed control at 100 ppm (Rhipicephalus microplus [4]): 100%; mortality at 4 ppm (Myzus persicae): 100%
4 | C[C@H](NC(=O)c1cccc(C(F)(F)F)n1)c1ncnn1-c1ccc(C#N)cn1 [II-4] | 80 | 100 |  | 100 | 100 | 100 | 100 | 100 |  | 80 to 100 | mortality at 20 mg/m2 [5]: 80 to 100%; mortality at 20 mg/m2 [6]: 80 to 100%; mortality at 4 mg/m2 ([8]; surface concentration 4 mg/m^2, glazed tile): 80 to 100%; mortality at 20 mg/m2 [8]: 80 to 100%
5 | CC(C)c1nc([C@H](C)NC(=O)c2cc(Br)cc(OC(F)(F)F)c2)n(-c2ccc(C#N)cn2)n1 [I-26] | 100 |  | 100 | 100 | 80 | 100 | 100 |  | 100 | 80 to 100 | mortality at 100 g/ha (Nilaparvata lugens): 90%
6 | CC(C)c1nc([C@H](C)NC(=O)c2cc(Cl)cc(C(F)(F)F)c2)n(-c2ccc(C#N)cn2)n1 [I-8] | 100 | 100 | 100 | 100 |  |  | 100 | 100 | 80 | 80 to 100 | pest or weed control at 5 µg/cm2 (Ctenocephalides felis [9]): 80%; pest or weed control at 100 ppm (Rhipicephalus microplus [4]): 100%
7 | C[C@H](NC(=O)c1cc(Cl)cc(C(F)(F)F)c1)c1ncnn1-c1cc(-n2ccc(C(F)(F)F)n2)ccn1 [II-42] | 100 | 100 | 80 | 0 |  |  | 100 | 100 | 90 |  | mortality at 20 mg/m2 [5]: 80 to 100%; mortality at 20 mg/m2 [8]: 80 to 100%
